Laboratory results reported in the supplement of paper PMC10307832.

What was measured:
Test in all cases: relative viability (nuclei count vs DMSO), 5 days (fraction); higher = more cells survive
Crizotinib + Dasatinib = compound: C[C@@H](Oc1cc(-c2cnn(C3CCNCC3)c2)cnc1N)c1c(Cl)ccc(F)c1Cl [Crizotinib] + Cc1nc(Nc2ncc(C(=O)Nc3c(C)cccc3Cl)s2)cc(N2CCN(CCO)CC2)n1 [Dasatinib] (partner 0.075 µM)
Method in brief: (§1)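 Relative viability was taken as the ratio of nuclei in treated wells to nuclei in vehicle wells. Lung cancer cell lines in 1536-well plates received compounds by pin tool one day after seeding, either one drug alone or a fixed anchor-drug dose plus five library-drug doses (not always all listed) in √10 steps. Nuclei were counted on 4× images after 5 days of treatment, and values are medians of duplicate plates.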

Carfilzomib + Luminespib = compound: CC(C)C[C@H](NC(=O)[C@H](CCc1ccccc1)NC(=O)CN1CCOCC1)C(=O)N[C@@H](Cc1ccccc1)C(=O)N[C@@H](CC(C)C)C(=O)[C@@]1(C)CO1 [Carfilzomib] + CCNC(=O)c1noc(-c2cc(C(C)C)c(O)cc2O)c1-c1ccc(CN2CCOCC2)cc1 [Luminespib] (partner 0.01 µM)
Method in brief: as §1

Olaparib + Crizotinib = compound: O=C(c1cc(Cc2n[nH]c(=O)c3ccccc23)ccc1F)N1CCN(C(=O)C2CC2)CC1 [Olaparib] + C[C@@H](Oc1cc(-c2cnn(C3CCNCC3)c2)cnc1N)c1c(Cl)ccc(F)c1Cl [Crizotinib] (partner 1 µM)
Method in brief: as §1

Olaparib + Tozasertib = compound: O=C(c1cc(Cc2n[nH]c(=O)c3ccccc23)ccc1F)N1CCN(C(=O)C2CC2)CC1 [Olaparib] + Cc1cc(Nc2cc(N3CCN(C)CC3)nc(Sc3ccc(NC(=O)C4CC4)cc3)n2)n[nH]1 [Tozasertib] (partner 0.1 µM)
Method in brief: as §1

| Cell Line | relative viability (Crizotinib + Dasatinib; first compound 0.01 µM) | relative viability (Crizotinib + Dasatinib; first compound 0.03162 µM) | relative viability (Crizotinib + Dasatinib; first compound 0.1 µM) | relative viability (Crizotinib + Dasatinib; first compound 1 µM) | relative viability (Carfilzomib + Luminespib; first compound 0.001 µM) | relative viability (Carfilzomib + Luminespib; first compound 0.003162 µM) | relative viability (Carfilzomib + Luminespib; first compound 0.01 µM) | relative viability (Carfilzomib + Luminespib; first compound 0.03162 µM) | relative viability (Carfilzomib + Luminespib; first compound 0.1 µM) | relative viability (Olaparib + Crizotinib; first compound 0.08 µM) | relative viability (Olaparib + Crizotinib; first compound 0.253 µM) | relative viability (Olaparib + Crizotinib; first compound 2.53 µM) | relative viability (Olaparib + Crizotinib; first compound 8 µM) | relative viability (Olaparib + Tozasertib; first compound 0.08 µM) | relative viability (Olaparib + Tozasertib; first compound 0.253 µM) | relative viability (Olaparib + Tozasertib; first compound 2.53 µM) | relative viability (Olaparib + Tozasertib; first compound 8 µM) | relative viability (Crizotinib + Dasatinib; first compound 0.3162 µM) |
| --- | --- | --- | --- | --- | --- | --- | --- | --- | --- | --- | --- | --- | --- | --- | --- | --- | --- | --- |
| NCI-H441 | 0.531 | 0.524 | 0.497 | 0.51 | 0.303 | 0.308 | 0.318 | 0.208 | 0.173 | 0.677 | 0.634 | 0.733 | 0.719 | 0.602 | 0.561 | 0.639 | 0.541 | – |
| NCI-H460 | 0.358 | 0.521 | 0.478 | 0.479 | 0.0383 | 0.0252 | 0.0369 | 0.0311 | 0.0158 | 0.875 | 0.744 | 0.502 | 0.17 | 0.485 | 0.415 | 0.356 | 0.184 | 0.424 |
| NCI-H520 | 0.19 | 0.192 | 0.2 | 0.155 | 0.231 | 0.227 | 0.18 | 0.22 | 0.247 | 0.739 | 0.695 | 0.781 | 0.477 | 0.39 | 0.389 | 0.467 | 0.411 | 0.271 |
| NCI-H596 | 0.634 | 0.594 | 0.677 | 0.722 | 1.16 | 1.05 | 1.14 | 0.354 | 0.195 | 0.736 | 0.866 | 1.02 | 0.833 | 0.962 | 0.707 | 0.813 | 0.617 | 0.658 |
| NCI-H647 | 0.148 | 0.172 | 0.131 | 0.17 | 0.203 | 0.143 | 0.2 | 0.0957 | 0.0461 | 1.23 | 0.914 | 0.923 | 0.675 | 0.253 | 0.258 | 0.407 | 0.255 | 0.191 |
| NCI-H650 | 0.472 | 0.434 | 0.512 | 0.406 | – | 0.866 | 0.636 | 0.746 | 0.182 | 0.899 | 0.713 | 0.623 | 0.615 | 0.974 | 0.72 | 0.656 | 0.541 | 0.388 |
| NCI-H661 | 0.811 | – | 0.899 | 0.98 | 0.93 | 0.967 | 0.933 | 0.866 | 0.291 | 1.06 | 0.969 | 0.944 | 0.849 | 0.346 | 0.355 | 0.34 | 0.343 | 0.809 |
| NCI-H727 | – | 0.398 | 0.348 | 0.341 | 0.32 | 0.436 | 0.294 | 0.498 | 0.201 | 0.934 | 0.737 | 0.671 | 0.48 | 0.704 | 0.581 | 0.674 | 0.486 | – |
| NCI-H838 | 0.208 | 0.303 | 0.313 | 0.261 | 0.27 | 0.255 | 0.301 | 0.19 | 0.13 | 0.882 | 0.774 | 0.779 | 0.742 | 0.277 | 0.239 | 0.265 | 0.269 | 0.248 |
| NCI-H1355 | 0.736 | 0.823 | 0.733 | 0.65 | 0.723 | 0.791 | 0.731 | 0.606 | 0.238 | 1.17 | 1.01 | 1.02 | 0.923 | 0.697 | 0.552 | 0.562 | 0.444 | 0.598 |
| NCI-H1437 | 0.376 | 0.435 | 0.403 | 0.396 | 1.08 | 1.24 | 1.11 | 0.94 | 0.249 | 1.07 | 0.814 | 0.903 | 0.618 | 0.424 | 0.393 | 0.394 | 0.379 | 0.301 |
| NCI-H1650 | 0.273 | 0.299 | 0.311 | 0.299 | 0.174 | 0.199 | 0.213 | 0.175 | 0.181 | 1.13 | 0.864 | 1.15 | 0.965 | 0.475 | 0.391 | 0.372 | 0.361 | 0.362 |
| NCI-H1651 | 0.374 | 0.389 | 0.456 | 0.314 | 0.766 | 0.913 | 0.916 | 0.2 | 0.12 | 0.882 | 0.782 | 0.669 | 0.439 | 0.677 | 0.638 | 0.439 | 0.257 | 0.403 |
| NCI-H1666 | 0.808 | 0.797 | 0.741 | 0.863 | 0.993 | 1.06 | 1.11 | 0.863 | 0.358 | 1.09 | 0.777 | 0.685 | 0.602 | 0.619 | 0.733 | 0.583 | 0.515 | 0.77 |
| NCI-H1734 | 0.49 | 0.455 | 0.397 | 0.555 | 0.188 | 0.177 | 0.235 | 0.184 | 0.107 | 0.691 | 0.681 | 0.647 | 0.553 | 0.25 | 0.249 | 0.251 | 0.251 | – |
| NCI-H1755 | 0.407 | 0.46 | 0.454 | 0.413 | 0.54 | 0.367 | 0.481 | 0.288 | 0.453 | 0.957 | 0.824 | 0.904 | 0.728 | 0.611 | 0.547 | 0.548 | 0.531 | 0.273 |
| NCI-H1915 | 0.307 | 0.338 | 0.315 | 0.317 | 0.698 | 0.781 | 0.766 | 0.375 | 0.0837 | 0.934 | 0.774 | 0.552 | 0.445 | 0.447 | 0.372 | 0.368 | 0.274 | – |
| NCI-H1944 | 0.193 | 0.22 | 0.207 | 0.203 | 0.698 | 0.774 | 0.707 | 0.732 | 0.205 | 1.06 | 0.926 | 0.814 | 0.676 | 0.217 | 0.198 | 0.228 | 0.231 | 0.179 |
